Reference: PubChem BioAssay (NCI)
“And” between values parts separate entries of the source, which are not always exact repeats. Equal values may be shown once.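 Step 1: Grow cells in 96-well plates. Step 2: Expose to compound for 48 hours at 5 concentrations. Step 3: Interpolate endpoints linearly; if unreached, use highest concentration. The concentration for 50% growth inhibition is given as GI50. TGI denotes the concentration required for complete inhibition of growth.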

Tests used:
Experiment in all cases: NCI tumour cell line growth inhibition, 48 h
SW-620 colon = system: SW-620 colon
NCI-H226 lung = system: NCI-H226 lung
SR leukemia = system: SR leukemia
SK-MEL-28 melanoma = system: SK-MEL-28 melanoma
KM20L2 colon = system: KM20L2 colon
M14 melanoma = system: M14 melanoma
SK-OV-3 ovarian = system: SK-OV-3 ovarian
M19-MEL melanoma = system: M19-MEL melanoma
MDA-MB-231 breast = system: MDA-MB-231 breast

Structure (SMILES)	TGI (SW-620 colon)	TGI (NCI-H226 lung)	TGI (SR leukemia)	TGI (SK-MEL-28 melanoma)	TGI (KM20L2 colon) [µM]	TGI (M14 melanoma)	TGI (SK-OV-3 ovarian)	TGI (M19-MEL melanoma) [µM]	GI50 (SW-620 colon)	GI50 (NCI-H226 lung)	GI50 (MDA-MB-231 breast)	TGI (MDA-MB-231 breast)	GI50 (SR leukemia)	GI50 (SK-MEL-28 melanoma)	GI50 (M14 melanoma)	GI50 (SK-OV-3 ovarian)
CCN(CC)CCCNc1nccc2c(C)c3[nH]c4ccncc4c(=O)c3cc12	16.1 µM	10.2 µM	2.23 µM	13.4 µM	40	9.64 µM	16 µM									
CCC1=CCC(P(=O)(c2ccccc2)c2ccccc2)CC1C (stereo unspecified)	> 100 µM	> 100 µM		> 100 µM	> 100	> 100 µM	> 100 µM	> 100								
CCCCCC1CC=CC(NC(=O)OCc2ccccc2)C1/C=C/CCCC1OCCO1 (stereo unspecified)	> 100 µM	> 100 µM		> 100 µM	> 100	> 100 µM	> 100 µM	> 100								
Cc1ccc2c(c1)C(=O)/C(=C/c1cccc(OCC(=O)c3ccc(Cl)cc3)c1)CS2	4.19 µM	31.4 µM	4.28 µM	4.93 µM		27.4 µM	90.9 µM		1.95 µM	14.9 µM	8.21 µM	76.1 µM	1.8 µM	2.27 µM	4.07 µM	25.1 µM
CC1(C)C=C(N2CCN(C3=CC(C)(C)NC(C)(C)C3)CC2)CC(C)(C)N1	> 100 µM		> 100 µM	> 100 µM	> 100	> 100 µM	> 100 µM	> 100								
CC[C@H](C)[C@H](NC(=O)[C@H]1CCCCN1C)C(=O)N(C)[C@H](C[C@@H](OC(C)=O)c1nc(C(=O)NC23C4C5C2C2C3C4C52C(=O)OC)cs1)C(C)C (stereo partly specified)	> 25 µM	1.15 µM	5.98 µM	> 25 µM		< 0.0025 µM	> 25 µM		0.00149 µM and 0.0025 µM	0.0256 µM and 0.0222 µM	0.00429 µM and 0.0025 µM	> 25 µM		3.12 µM	0.00713 µM and < 0.0025 µM	0.0102 µM and 0.0025 µM
C=C(C)C1CC=C(C)C(O)([C@@]2(O)C[C@H](C(=C)C)CC=C2C)C1 (stereo partly specified)	> 100 µM		58.1 µM	95.9 µM		39.9 µM	64.1 µM	38.1								
CC(/C=C1\CCC(CN(C)C)C1=O)c1cccc(Br)c1 (stereo unspecified)	26.2 µM	48.8 µM		31.5 µM	45.4	29.2 µM	> 100 µM	50.2								
CN(CCCCCCCCNc1ccnc2ccccc12)Cc1ccc(-c2ccc(-c3ccc(C#N)cc3)s2)cc1	0.432 µM	3.17 µM	0.35 µM	3.06 µM		1.56 µM	3.27 µM		0.178 µM	1.17 µM	1.46 µM	3.06 µM	0.083 µM	1.65 µM	0.443 µM	1.65 µM
O=C(CS(=O)c1nc2ccccc2nc1-c1ccccc1)Nc1ccc(Cl)cc1 (stereo unspecified)	88.2 µM	47.8 µM	47.6 µM	> 100 µM		> 100 µM	> 100 µM		26.7 µM	23.1 µM	18.5 µM	49.1 µM	18.7 µM	58.9 µM	28.4 µM	51.3 µM
C#Cc1cccc(Nc2ncnc3ccc(-c4cnc(N)nc4)cc23)c1	17.7 µM	12.8 µM	> 100 µM	16 µM		15.7 µM	4.74 µM		4.23 µM	1.98 µM	2.05 µM	11 µM	2.58 µM	3.2 µM	3.73 µM	1.53 µM
CC(O)(c1ccc(OCCC[N+](C)(C)C)cc1)C(C)(O)c1ccc(OCCC[N+](C)(C)C)cc1 (stereo unspecified)	> 100 µM	> 100 µM		> 100 µM	> 100	> 100 µM	> 100 µM									
CSC(=NC(=O)c1ccccc1)SCCSC(=NC(=O)c1ccccc1)SC	> 100 µM	> 100 µM		> 100 µM	> 100	> 100 µM		> 100								
CSc1nc(SC)c2c(C)c(Br)[nH]c2n1	> 100 µM	> 100 µM	> 100 µM	> 100 µM		> 100 µM	> 100 µM					> 100 µM				
C/C(CC(=O)Nc1cccc([N+](=O)[O-])c1)=N/NC(N)=S	> 100 µM	> 100 µM		> 100 µM	> 100	> 100 µM	> 100 µM	> 100								
CN(CCc1ccccn1)/[N+]([O-])=N/O (tested in a mixture with another compound)	> 100 µM	> 100 µM	> 100 µM	> 100 µM	> 100	> 100 µM		> 100								
CC1=C(C(=O)Nc2ccccc2C)C(c2ccccc2O)C(C(=O)Nc2ccccc2C)=C(C)N1	> 100 µM	> 100 µM	50.8 µM	59.1 µM	45.6	39.8 µM		52								
COC(=O)/C=C(C)/C=C/c1c(C)c(C(C)=O)c(C)n1C	> 100 µM	> 100 µM			> 100	> 100 µM	> 100 µM	> 100								
O=C1NC(c2cccc3ccccc23)Nc2ccccc21 (stereo unspecified)	> 56.6 µM			> 100 µM		0.672 µM	0.252 µM		0.0203 µM	0.0238 µM		3.03 µM	0.0106 µM		0.0177 µM	0.0316 µM
CN(C)C[C@@H]1CCn2cc(c3ccccc32)C2=C(C(=O)NC2=O)c2cn(c3ccccc23)CCO1	4.28 µM	> 10 µM	5.55 µM	8.13 µM		> 10 µM	> 10 µM		0.467 µM	2 µM	1.68 µM	9.49 µM	1.68 µM	1.03 µM	1.03 µM	2.08 µM
O=C1C(c2ccccc2)=[N+]([O-])c2cc([N+](=O)[O-])ccc21	> 100 µM	> 100 µM		48.4 µM	47.3		> 100 µM	32.9								

Structure (SMILES)	TGI (SW-620 colon)	TGI (NCI-H226 lung)	TGI (SR leukemia)	TGI (SK-MEL-28 melanoma)	TGI (KM20L2 colon) [µM]	TGI (M14 melanoma)	TGI (SK-OV-3 ovarian)	TGI (M19-MEL melanoma) [µM]	GI50 (SW-620 colon)	GI50 (NCI-H226 lung)	GI50 (MDA-MB-231 breast)	TGI (MDA-MB-231 breast)	GI50 (SR leukemia)	GI50 (SK-MEL-28 melanoma)	GI50 (M14 melanoma)	GI50 (SK-OV-3 ovarian)
COc1ccc2c(c1)C(=O)/C(=C/c1cccc(OCC(=O)c3ccc([N+](=O)[O-])cc3)c1)CO2	2.96 µM	23.3 µM	12.9 µM	3.7 µM		4.32 µM	23 µM		1.45 µM	7.06 µM	3.67 µM	14.2 µM	1.15 µM	1.86 µM	2.19 µM	10.5 µM
CC(=O)OCC1OC([S-])C(OC(C)=O)C(OC(C)=O)C1OC(C)=O.[Au+].c1ccc(CN2[CH-]N(Cc3ccccc3)C(c3ccccc3)=C2c2ccccc2)cc1	4.61 µM and 2.08 µM	14.3 µM and 5.74 µM	8.26 µM and 47.5 µM	5.76 µM and 2.29 µM		5.66 µM and 3 µM	26.3 µM and 5.17 µM		2.02 µM and 0.779 µM	3.5 µM and 0.655 µM	1.84 µM and 0.281 µM	3.62 µM and 0.951 µM	2.7 µM and 0.364 µM	2.33 µM and 0.468 µM	2.27 µM and 0.798 µM	
CCOC(=O)Nc1cc2c(c(N)n1)N=C(c1ccccc1)CN2	> 53 µM		> 100 µM	39.9 µM		> 49 µM	17.5 µM		< 0.0001 µM	0.000221 µM	< 0.0001 µM	0.00463 µM			< 0.0001 µM	0.0207 µM
Cn1c2ccccc2c2c(=O)n(CCCC(=O)NCCc3cnc[nH]3)c3c(-c4ccccc4)nnn3c21	30.2 µM	> 50 µM	> 50 µM	16.9 µM		24.3 µM	18.7 µM		13 µM	> 50 µM	9.27 µM	18.6 µM	4.03 µM	8.86 µM	11.9 µM	10.2 µM
CCCCCCCCCCCCSC1=CC(=O)C=CC1=O	> 50 µM	19 µM	29.1 µM	> 39.9 µM		> 37.1 µM	> 33.4 µM		17.9 µM	6.58 µM	5.36 µM	17.1 µM	3.58 µM	13.6 µM	11.7 µM	12.2 µM
CC(C)c1ccc(C(c2c(O)c3ccccc3oc2=O)c2c(O)c3ccccc3oc2=O)cc1	34.2 µM	42.2 µM	31.1 µM	40 µM		38.4 µM	65.8 µM					45.6 µM				
Cl.[O-]c1cccc2cccnc12.[O-]c1cccc2cccnc12.[O-]c1cccc2cccnc12.[O-]c1cccc2cccnc12.[Ti+4]	> 100 µM	> 89.9 µM		> 35.4 µM	> 76	17.8 µM	> 73.8 µM		0.393 µM	7.9 µM	1.26 µM	> 100 µM		4.33 µM	0.994 µM	3.94 µM
CCN(CC)CCNc1ccc(N=Nc2cnc3ccccc3c2)c2ccccc12	3.47 µM	3.66 µM	2.08 µM	3.29 µM		3.29 µM	3.2 µM		1.83 µM	1.71 µM	1.12 µM	2.38 µM	0.59 µM	1.79 µM	1.79 µM	1.72 µM
COc1ccc(-c2nsc3c2NC(=O)CC3c2cccc(F)c2)cc1 (stereo unspecified)	> 100 µM	> 100 µM	> 100 µM	> 100 µM		> 100 µM	> 100 µM		3.08 µM	6.74 µM	6.34 µM	> 100 µM	2.44 µM	7.37 µM	3.44 µM	5.28 µM
O=C1c2c(c3c4ccccc4n(CCCCCCN4CCOCC4)c3c3[nH]c4ccccc4c23)C(=O)N1O	3.93 µM	> 80.4 µM	1.08 µM	4.02 µM		30.7 µM	43.2 µM		1.68 µM	> 32.5 µM	2.17 µM	7.76 µM	0.291 µM	1.96 µM	4.02 µM	20.6 µM
CCCn1cc(/C=N\N=C2\C(=O)Nc3ccc(C)cc32)c2ccccc21	35.3 µM	20.6 µM	8.72 µM	36.9 µM		4.7 µM	67.1 µM		2.97 µM	2.95 µM	1.81 µM	7.4 µM	0.521 µM	4.7 µM	1.92 µM	11.7 µM
CCc1nc(N)nc(N)c1-c1ccc(N(C)Cc2ccccc2)c([N+](=O)[O-])c1	26.5 µM	23.2 µM	4.16 µM	17 µM		11.3 µM	33.6 µM					36.1 µM				
O=C(O)C1C2C=CC(O2)C1C(=O)NCc1ccncc1 (stereo unspecified)	> 100 µM	> 100 µM	> 100 µM	> 100 µM		> 100 µM	> 100 µM					> 100 µM				
CC(=O)CCn1[nH]c(=O)c(Cl)c(Cl)c1=O	45.3 µM	> 100 µM	> 100 µM	> 100 µM	> 100	> 100 µM		> 100								
Cc1cc(=O)n2c(cc3cccccc32)n1	> 100 µM	> 100 µM	> 100 µM	> 100 µM	> 100	> 100 µM										
CCCCCCCCC1C(C)c2c([nH]c3ccccc23)C2C(=O)N(c3ccccc3)C(=O)C21 (stereo unspecified)	41.5 µM	25.9 µM		34.3 µM	31.7	28 µM	51.1 µM	31.9								
O=c1oc2ccc(I)cc2c(=O)n1-c1ccc(I)cc1F	13.1 µM	5.88 µM	> 38.2 µM	1.9 µM		5.87 µM	2.71 µM		0.821 µM	1.47 µM	0.579 µM	6.14 µM	0.61 µM	0.358 µM	0.545 µM	0.601 µM
Cc1cnc(-c2ccc(-c3ccc(NC(=O)Nc4cccc(C(F)(F)F)c4)cc3F)c3c2C(=O)NC3)[nH]1	17.4 µM	> 42.7 µM	> 59.9 µM	37.7 µM		32.9 µM	39.7 µM		0.081 µM	0.933 µM	26 µM	> 57.3 µM	0.0862 µM	11.5 µM	0.624 µM	6.97 µM
O=C(CO)CC(=O)C(=O)Nc1cccc(C(F)(F)F)c1	> 100 µM	> 100 µM	> 100 µM	> 100 µM	> 100	> 100 µM	> 100 µM									
N#Cc1ccc(O)c(C2=NCC(c3ccc(-c4ccccc4)cc3)O2)c1 (stereo unspecified)	31.2 µM	12.7 µM	> 100 µM	43.8 µM		2.95 µM	14.4 µM		0.387 µM	0.589 µM	0.823 µM	18.5 µM	0.529 µM	1.34 µM	0.399 µM	0.664 µM
